Key:
Assay in all cases: drug sensitivity score (DSS2, normalised partial AUC of dose-response, 72 h CellTiter-Glo viability) (DSS (dimensionless)); higher = more sensitive (stronger growth inhibition / cytotoxicity); extreme values may be limits of the assay
CAF#1 = system: CAF#1 (primary prostate cancer-associated fibroblasts of myCAF-like type)
Procedure, shortened: (§1)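 Low-passage primary prostate cancer-associated fibroblasts, PF179T, WPMY-1, LNCaP and 22Rv1 cells were seeded into 384-well plates carrying pre-dispensed compounds at five doses covering a 10,000-fold range. After 72 h, viability was read by CellTiter-Glo 2.0 luminescence. Responses were scaled to vehicle and positive-control wells. The drug sensitivity score (DSS2) is a partial area under the fitted logistic dose–response curve divided by the log of its upper asymptote, computed in BREEZE; higher means more sensitive.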

22Rv1 = system: 22Rv1
Procedure, shortened: as §1

CAF#3 = system: CAF#3 (primary prostate cancer-associated fibroblasts of myCAF-like type)
Procedure, shortened: as §1

PF179T = system: PF179T
Procedure, shortened: as §1

WPMY-1 = system: WPMY-1
Procedure, shortened: as §1

CAF#4 = system: CAF#4 (primary prostate cancer-associated fibroblasts of iCAF-like type)
Procedure, shortened: as §1

LNCAP = system: LNCAP
Procedure, shortened: as §1

CAF#5 = system: CAF#5 (primary prostate cancer-associated fibroblasts of myCAF-like type)
Procedure, shortened: as §1

CAF#2 = system: CAF#2 (primary prostate cancer-associated fibroblasts of iCAF-like type)
Procedure, shortened: as §1

CAF#6 = system: CAF#6 (primary prostate cancer-associated fibroblasts of iCAF-like type)
Procedure, shortened: as §1

CAF#7 = system: CAF#7 (primary prostate cancer-associated fibroblasts of myCAF-like type)
Procedure, shortened: as §1

Structure (SMILES) | drug sensitivity score (CAF#1) | drug sensitivity score (22Rv1) | drug sensitivity score (CAF#3) | drug sensitivity score (PF179T) | drug sensitivity score (WPMY-1) | drug sensitivity score (CAF#4) | drug sensitivity score (LNCAP) | drug sensitivity score (CAF#5) | drug sensitivity score (CAF#2) | drug sensitivity score (CAF#6) | drug sensitivity score (CAF#7)
CC/C(=C(\c1ccccc1)c1ccc(OCCN(C)C)cc1)c1ccccc1 [Tamoxifen] (tested concentration range 1-10000 nM) | 0.1 | 3.7 | 2.5 | 0 | 5 | 1.1 | 4.1 | 2 | 1.3 | 2.6 | 1.9
CC/C(=C(\c1ccc(O)cc1)c1ccc(OCCN(C)C)cc1)c1ccccc1 [4-hydroxytamoxifen] (tested concentration range 1-10000 nM) | 3.3 | 6.4 | 1.6 | 3.2 | 7.2 | 6.2 | 4.7 | 3.8 | 5.3 | 1.8 | 1.6
NC(=O)/C(=C/n1cnc(-c2cc(C(F)(F)F)cc(C(F)(F)F)c2)n1)c1cncnc1 [Eltanexor] (tested concentration range 1-10000 nM) | 14.5 | 31.1 | 10.8 | 18.2 | 27.5 | 15.5 | 28.6 | 16.8 | 22.8 | 12.1 | 14.4
CCN1CCN(Cc2ccc(Nc3ncc(F)c(-c4cc(F)c5nc(C)n(C(C)C)c5c4)n3)nc2)CC1 [Abemaciclib] (tested concentration range 0.2-2500 nM) | 0 | 11 | 0 | 0.6 | 6 | 0.2 | 8.7 | 0 | 5.6 | 0.1 | 0
CC[C@H](CO)Nc1nc(NCc2ccccc2)c2ncn(C(C)C)c2n1 [Seliciclib] (tested concentration range 1-10000 nM) | 1.7 | 0.2 | 1.4 | 0 | 0.6 | 1.4 | 4.3 | 2 | 1.1 | 1.1 | 2.3
Cc1cccc(-c2nn3c(c2-c2ccnc4ccc(C(N)=O)cc24)CCC3)n1 [Galunisertib] (tested concentration range 0.1-1000 nM) | 0 | 0 | 0.1 | 0 | 0 | 0 | 0 | 0 | 0 | 0 | 0
CN1CC[C@@H](NC(=O)Nc2ccc(C#N)cc2)C[C@@H]1c1nc2ccccc2[nH]1 [Glasdegib] (tested concentration range 0.1-1000 nM) | 0 | 0 | 0.1 | 0 | 0 | 0 | 0 | 0 | 0 | 0.3 | 0
Nc1cc(F)ccc1NC(=O)c1ccc(CNC(=O)/C=C/c2cccnc2)cc1 [Tucidinostat] (tested concentration range 1-10000 nM) | 2.4 | 9.6 | 2.9 | 8.9 | 7.6 | 5.7 | 10.6 | 10.1 | 6 | 3.2 | 3.9
CCN(CC)CCOc1ccc(C(=C(Cl)c2ccccc2)c2ccccc2)cc1 [Clomifene] (tested concentration range 1-10000 nM) | 2.3 | 5.7 | 4.2 | 6 | 5.5 | 4 | 4.8 | 3.7 | 5.8 | 4 | 3.7
CO[C@H]1C(=O)[C@]2(C)[C@@H](OC)C[C@H]3OC[C@@]3(OC(C)=O)[C@H]2[C@H](OC(=O)c2ccccc2)[C@]2(O)C[C@H](OC(=O)[C@H](O)[C@@H](NC(=O)OC(C)(C)C)c3ccccc3)C(C)=C1C2(C)C [Cabazitaxel] (tested concentration range 0.1-1000 nM) | 14.6 | 26.5 | 14.2 | 22.2 | 28.2 | 13 | 35.6 | 15.8 | 18.1 | 18.4 | 26.4
CC(C)[C@@H](CS(=O)(=O)C(C)C)N1C(=O)[C@@](C)(CC(=O)O)C[C@H](c2cccc(Cl)c2)[C@H]1c1ccc(Cl)cc1 [KRT-232] (tested concentration range 1-10000 nM) | 13.7 | 10 | 6.3 | 14.2 | 0 | 8.6 | 21.4 | 10.9 | 14.7 | 11.9 | 12.7
COc1cc(Nc2ncc3c(n2)-c2ccc(Cl)cc2C(c2c(F)cccc2OC)=NC3)ccc1C(=O)O [Alisertib] (tested concentration range 1-10000 nM) | 4.9 | 0 | 3.3 | 7.6 | 16.3 | 4.5 | 9.6 | 6 | 9.4 | 1.2 | 3.5
CO[C@@H](C)Cn1c(=O)n(C)c2cnc3ccc(-c4cncc(C(C)(C)O)c4)cc3c21 (tested concentration range 0.2-2500 nM) | 14.1 | 16.8 | 10.3 | 14.1 | 12 | 10.7 | 16.8 | 14.5 | 13.5 | 10.9 | 10.5
CNC(=O)c1cccc(-c2ccc3c(N4CCOC[C@@H]4C)nc(N4CCOC[C@@H]4C)nc3n2)c1 [Vistusertib] (tested concentration range 1-10000 nM) | 17.7 | 19.9 | 14.8 | 16.2 | 13.7 | 17.9 | 19.4 | 19.6 | 15.8 | 14 | 14.4
CN1CCN(c2nc(C3=C(c4c[nH]c5ccccc45)C(=O)NC3=O)c3ccccc3n2)CC1 [Sotrastaurin] (tested concentration range 1-10000 nM) | 0 | 3.6 | 0 | 0 | 1.5 | 0 | 3.5 | 0 | 2.2 | 0 | 0
CNC(=O)c1ccc(N2C(=S)N(c3ccc(C#N)c(C(F)(F)F)c3)C(=O)C2(C)C)cc1F [Enzalutamide] (tested concentration range 1-10000 nM) | 3.9 | 0 | 0 | 0.4 | 0 | 2.2 | 2.6 | 2.8 | 2.3 | 0.5 | 0
FC(F)(F)c1ccc(CNc2ccc(Cc3c[nH]c4ncc(Cl)cc34)cn2)cn1 [Pexidartinib] (tested concentration range 1-10000 nM) | 4.8 | 0 | 1.2 | 1.7 | 0.6 | 3 | 1.4 | 5.1 | 5.9 | 0 | 2.7
C=C1C[C@@H]2[C@H](CC[C@]3(C)C(=O)CC[C@@H]23)[C@@]2(C)C=CC(=O)C=C12 [Exemestane] (tested concentration range 1-10000 nM) | 0 | 0 | 0.7 | 0 | 0 | 0 | 2.5 | 0 | 0 | 0 | 0
CC(C)Cn1cnc2c(N)nc3ccccc3c21 [Imiquimod] (tested concentration range 0.2-2500 nM) | 1.4 | 0 | 0.1 | 0 | 0 | 0 | 0 | 0 | 0 | 0 | 0
CCN(CC)CCNC(=O)c1c(C)[nH]c(/C=C2\C(=O)Nc3ccc(-c4csc(-c5ccccc5)n4)cc32)c1C [Amcasertib] (tested concentration range 1-10000 nM) | 7 | 6.8 | 0 | 0 | 0 | 7.1 | 3.5 | 6.6 | 2.3 | 0 | 0
Cc1cc(OCc2nnc(SC3CCCC3)n2-c2cccnc2)ccc1-c1ccc(S(C)(=O)=O)cc1 [NMS-873] (tested concentration range 1-10000 nM) | 4.8 | 12.4 | 8 | 15 | 14.6 | 5.7 | 18.4 | 5.6 | 8.5 | 5.9 | 5.1
CNc1nc(Nc2cn(C(C)(C)C#N)nc2C)ncc1C(F)(F)F [GNE-0877] (tested concentration range 0.1-1000 nM) | 0 | 0 | 0 | 0 | 0 | 0 | 0 | 0 | 0 | 0 | 0
O=C(c1ccc(C(=O)N2CCC(N3CCCC3)CC2)c(Nc2ccccc2)c1)N1CCC(N2CCCC2)CC1 [UNC1215] (tested concentration range 1-10000 nM) | 0 | 0 | 0 | 0 | 0 | 0 | 0 | 0 | 0 | 0 | 0
S=c1[nH]cnc2nc[nH]c12 [Mercaptopurine] (tested concentration range 1-10000 nM) | 0 | 2.7 | 0.1 | 0 | 9 | 2.8 | 0.2 | 0 | 0.1 | 1.4 | 0.1
Cc1ncc(-c2ccnc(Nc3ccc(S(C)(=O)=O)cc3)n2)n1C(C)C [AZD-5438] (tested concentration range 1-10000 nM) | 4.1 | 7.6 | 4 | 2.5 | 8.7 | 6.8 | 10.2 | 2.9 | 3.9 | 3 | 5.6

From the supplement of paper PMC12592484
